{"source": "PubChem BioAssay (NCI)", "assay_in_all_cases": "NCI tumour cell line growth inhibition, 48 h", "key": {"HCT-116 colon": {"tested_on": "HCT-116 colon"}, "XF 498 CNS": {"tested_on": "XF 498 CNS"}, "MOLT-4 leukemia": {"tested_on": "MOLT-4 leukemia"}, "A498 renal": {"tested_on": "A498 renal"}, "OVCAR-3 ovarian": {"tested_on": "OVCAR-3 ovarian"}, "786-0 renal": {"tested_on": "786-0 renal"}, "SNB-78 CNS": {"tested_on": "SNB-78 CNS"}, "SW-620 colon": {"tested_on": "SW-620 colon"}, "SK-MEL-5 melanoma": {"tested_on": "SK-MEL-5 melanoma"}, "SN12C renal": {"tested_on": "SN12C renal"}, "SN12K1 renal": {"tested_on": "SN12K1 renal"}, "M19-MEL melanoma": {"tested_on": "M19-MEL melanoma"}, "IGROV1 ovarian": {"tested_on": "IGROV1 ovarian"}, "P388 leukemia": {"tested_on": "P388 leukemia"}, "MALME-3M melanoma": {"tested_on": "MALME-3M melanoma"}, "ACHN renal": {"tested_on": "ACHN renal"}, "K-562 leukemia": {"tested_on": "K-562 leukemia"}, "OVCAR-5 ovarian": {"tested_on": "OVCAR-5 ovarian"}, "KM20L2 colon": {"tested_on": "KM20L2 colon"}, "SK-MEL-28 melanoma": {"tested_on": "SK-MEL-28 melanoma"}, "SK-MEL-2 melanoma": {"tested_on": "SK-MEL-2 melanoma"}, "SK-OV-3 ovarian": {"tested_on": "SK-OV-3 ovarian"}, "HOP-92 NSCLC": {"tested_on": "HOP-92 NSCLC"}, "LXFL 529 NSCLC": {"tested_on": "LXFL 529 NSCLC"}, "RPMI-8226 leukemia": {"tested_on": "RPMI-8226 leukemia"}, "NCI/ADR-RES ovarian": {"tested_on": "NCI/ADR-RES ovarian"}, "UO-31 renal": {"tested_on": "UO-31 renal"}, "KM12 colon": {"tested_on": "KM12 colon"}, "UACC-62 melanoma": {"tested_on": "UACC-62 melanoma"}, "DMS 273 small cell lung": {"tested_on": "DMS 273 small cell lung"}, "M14 melanoma": {"tested_on": "M14 melanoma"}, "TK-10 renal": {"tested_on": "TK-10 renal"}, "HCC-2998 colon": {"tested_on": "HCC-2998 colon"}, "HOP-18 NSCLC": {"tested_on": "HOP-18 NSCLC"}, "NCI-H522 lung": {"tested_on": "NCI-H522 lung"}, "OVCAR-4 ovarian": {"tested_on": "OVCAR-4 ovarian"}, "SF-268 CNS": {"tested_on": "SF-268 CNS"}, "SF-295 CNS": {"tested_on": "SF-295 CNS"}, "NCI-H460 lung": {"tested_on": "NCI-H460 lung"}, "HL-60(TB) leukemia": {"tested_on": "HL-60(TB) leukemia"}, "SNB-75 CNS": {"tested_on": "SNB-75 CNS"}, "UACC-257 melanoma": {"tested_on": "UACC-257 melanoma"}, "CCRF-CEM leukemia": {"tested_on": "CCRF-CEM leukemia"}, "NCI-H23 lung": {"tested_on": "NCI-H23 lung"}, "RXF 393 renal": {"tested_on": "RXF 393 renal"}, "DLD-1 colon": {"tested_on": "DLD-1 colon"}, "SNB-19 CNS": {"tested_on": "SNB-19 CNS"}, "A549 NSCLC": {"tested_on": "A549 NSCLC"}, "COLO 205 colon": {"tested_on": "COLO 205 colon"}, "U251 CNS": {"tested_on": "U251 CNS"}, "EKVX NSCLC": {"tested_on": "EKVX NSCLC"}, "HT29 colon": {"tested_on": "HT29 colon"}, "SF-539 CNS": {"tested_on": "SF-539 CNS"}, "DMS 114 small cell lung": {"tested_on": "DMS 114 small cell lung"}, "RXF-631 renal": {"tested_on": "RXF-631 renal"}, "LOX IMVI melanoma": {"tested_on": "LOX IMVI melanoma"}, "NCI-H226 lung": {"tested_on": "NCI-H226 lung"}, "HCT-15 colon": {"tested_on": "HCT-15 colon"}, "MCF7 breast": {"tested_on": "MCF7 breast"}, "HOP-62 NSCLC": {"tested_on": "HOP-62 NSCLC"}, "P388/ADR leukemia": {"tested_on": "P388/ADR leukemia"}, "CAKI-1 renal": {"tested_on": "CAKI-1 renal"}, "OVCAR-8 ovarian": {"tested_on": "OVCAR-8 ovarian"}}, "note": "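Assay format: 96-well plates, 48-hour exposure. At the TGI there is no net growth.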"}
{"smiles": "CCN(CCCl)CCNc1c2ccccc2nc2ccc(OC)cc12", "values": [{"measurement": "TGI", "setting": "HCT-116 colon", "result": 2.1, "unit": "µM"}, {"measurement": "TGI", "setting": "XF 498 CNS", "result": 2.43, "unit": "µM"}, {"measurement": "TGI", "setting": "MOLT-4 leukemia", "result": 0.341, "unit": "µM"}, {"measurement": "TGI", "setting": "A498 renal", "result": 6.64, "unit": "µM"}, {"measurement": "TGI", "setting": "OVCAR-3 ovarian", "result": 4.71, "unit": "µM"}, {"measurement": "TGI", "setting": "786-0 renal", "result": 1.84, "unit": "µM"}, {"measurement": "TGI", "setting": "SNB-78 CNS", "result": 4.68, "unit": "µM"}, {"measurement": "TGI", "setting": "SW-620 colon", "result": 2.04, "unit": "µM"}, {"measurement": "TGI", "setting": "SK-MEL-5 melanoma", "result": 2.6, "unit": "µM"}, {"measurement": "TGI", "setting": "SN12C renal", "result": 2.85, "unit": "µM"}, {"measurement": "TGI", "setting": "SN12K1 renal", "result": 3.08, "unit": "µM"}, {"measurement": "TGI", "setting": "M19-MEL melanoma", "result": 2.24, "unit": "µM"}, {"measurement": "TGI", "setting": "IGROV1 ovarian", "result": 2.86, "unit": "µM"}, {"measurement": "TGI", "setting": "P388 leukemia", "result": 0.58, "unit": "µM"}, {"measurement": "TGI", "setting": "MALME-3M melanoma", "result": 2.31, "unit": "µM"}, {"measurement": "TGI", "setting": "ACHN renal", "result": 1.66, "unit": "µM"}, {"measurement": "TGI", "setting": "K-562 leukemia", "result": 2.51, "unit": "µM"}, {"measurement": "TGI", "setting": "OVCAR-5 ovarian", "result": 4.04, "unit": "µM"}, {"measurement": "TGI", "setting": "KM20L2 colon", "result": 3.45, "unit": "µM"}, {"measurement": "TGI", "setting": "SK-MEL-28 melanoma", "result": 3.67, "unit": "µM"}, {"measurement": "TGI", "setting": "SK-MEL-2 melanoma", "result": 2.52, "unit": "µM"}, {"measurement": "TGI", "setting": "SK-OV-3 ovarian", "result": 3.81, "unit": "µM"}, {"measurement": "TGI", "setting": "HOP-92 NSCLC", "result": 2.43, "unit": "µM"}, {"measurement": "TGI", "setting": "LXFL 529 NSCLC", "result": 1.87, "unit": "µM"}, {"measurement": "TGI", "setting": "RPMI-8226 leukemia", "result": 1.37, "unit": "µM"}, {"measurement": "TGI", "setting": "NCI/ADR-RES ovarian", "result": 12.8, "unit": "µM"}, {"measurement": "TGI", "setting": "UO-31 renal", "result": 3.98, "unit": "µM"}, {"measurement": "TGI", "setting": "KM12 colon", "result": 3.11, "unit": "µM"}, {"measurement": "TGI", "setting": "UACC-62 melanoma", "result": 1.94, "unit": "µM"}, {"measurement": "TGI", "setting": "DMS 273 small cell lung", "result": 2.02, "unit": "µM"}, {"measurement": "TGI", "setting": "M14 melanoma", "result": 2.45, "unit": "µM"}, {"measurement": "TGI", "setting": "TK-10 renal", "result": 5.82, "unit": "µM"}, {"measurement": "TGI", "setting": "HCC-2998 colon", "result": 2.15, "unit": "µM"}, {"measurement": "TGI", "setting": "HOP-18 NSCLC", "result": 8.02, "unit": "µM"}, {"measurement": "TGI", "setting": "NCI-H522 lung", "result": 1.71, "unit": "µM"}, {"measurement": "TGI", "setting": "OVCAR-4 ovarian", "result": 3.24, "unit": "µM"}, {"measurement": "TGI", "setting": "SF-268 CNS", "result": 2.59, "unit": "µM"}, {"measurement": "TGI", "setting": "SF-295 CNS", "result": 4, "unit": "µM"}, {"measurement": "TGI", "setting": "NCI-H460 lung", "result": 2.2, "unit": "µM"}, {"measurement": "TGI", "setting": "HL-60(TB) leukemia", "result": 3.91, "unit": "µM"}, {"measurement": "TGI", "setting": "SNB-75 CNS", "result": 3.27, "unit": "µM"}, {"measurement": "TGI", "setting": "UACC-257 melanoma", "result": 3.73, "unit": "µM"}, {"measurement": "TGI", "setting": "CCRF-CEM leukemia", "result": 2.41, "unit": "µM"}, {"measurement": "TGI", "setting": "NCI-H23 lung", "result": 2.12, "unit": "µM"}, {"measurement": "TGI", "setting": "RXF 393 renal", "result": 1.97, "unit": "µM"}, {"measurement": "TGI", "setting": "DLD-1 colon", "result": 3.46, "unit": "µM"}, {"measurement": "TGI", "setting": "SNB-19 CNS", "result": 8.62, "unit": "µM"}, {"measurement": "TGI", "setting": "A549 NSCLC", "result": 7.11, "unit": "µM"}, {"measurement": "TGI", "setting": "COLO 205 colon", "result": 1.82, "unit": "µM"}, {"measurement": "TGI", "setting": "U251 CNS", "result": 4.78, "unit": "µM"}, {"measurement": "TGI", "setting": "EKVX NSCLC", "result": 3.49, "unit": "µM"}, {"measurement": "TGI", "setting": "HT29 colon", "result": 2.13, "unit": "µM"}, {"measurement": "TGI", "setting": "SF-539 CNS", "result": 2.34, "unit": "µM"}, {"measurement": "TGI", "setting": "DMS 114 small cell lung", "result": 2.35, "unit": "µM"}, {"measurement": "TGI", "setting": "RXF-631 renal", "result": 4.4, "unit": "µM"}, {"measurement": "TGI", "setting": "LOX IMVI melanoma", "result": 2.14, "unit": "µM"}, {"measurement": "TGI", "setting": "NCI-H226 lung", "result": 2.42, "unit": "µM"}, {"measurement": "TGI", "setting": "HCT-15 colon", "result": 3.39, "unit": "µM"}, {"measurement": "TGI", "setting": "MCF7 breast", "result": 3.55, "unit": "µM"}, {"measurement": "TGI", "setting": "HOP-62 NSCLC", "result": 3.85, "unit": "µM"}, {"measurement": "TGI", "setting": "P388/ADR leukemia", "result": 2.29, "unit": "µM"}, {"measurement": "TGI", "setting": "CAKI-1 renal", "result": 4.23, "unit": "µM"}, {"measurement": "TGI", "setting": "OVCAR-8 ovarian", "result": 2.26, "unit": "µM"}]}
